Patent US3962445A, “Anti-allergenic carbostyril derivatives” (Beecham Group Limited, priority 1973, dated 1976)

Tested on: PCA response
Assay: rat Passive Cutaneous Anaphylaxis Test (PCA test)
Assay type: in vivo, rat (male Wistar)
Conditions: subcutaneous, as sodium salt
Experimental: Some of the 4-hydroxycarbostyrils prepared in the preceding examples were tested in the rat Passive Cutaneous Anaphylaxis Test (PCA test), described below. They were administered as their sodium salts either in pH 7.2 phosphate buffer (for soluble salts) or as a suspension in 1% methyl cellulose (for insoluble salts).
Male Wistar rats of 250-300g, were injected intraperitoneally with 0.5 ml. of Bordatella pertussis vaccine (containing 4 × 10^10 dead organism per ml) and subcutaneously with 0.5 ml. of an emulsion of 100 mg. of ovalbumin in 2 ml of saline and 3 ml. of incomplete Freunds' adjuvant. Rats were bled by cardiac puncture on day 18, the blood was pooled and separated and serum stored at -20° and thawed only once before use.
0.1 ml of each of six twofold serial dilutions of the serum in 0.9% saline were injected intradermally into separate sites on the shaved dorsal surface of 250-350 g. Male Wistar rats. 72 hours later the animals were challenged by i v injection of 0.3 ml. of 1% ovalbumin mixed with 0.1 ml of a 5% solution of pontamine sky blue dye both in isotonic saline buffered with pH. 7.2 Sorenson buffer (P P S ) The rats were killed after 20 minutes and the diameter of the blue wheals at the antibody injection sites were measured. The starting dilution of the serum was adjusted so that there was no response after challenge, at the site of injection of the highest dilution and a maximum response at the two or three lowest dilutions. Typically, six twofold serial dilutions of the serum 1/4 to […] were used.
Amounts of the compounds were administered to rats by subcutaneous injection, into the nucal region, of a solution of the compound in P.B.S. or as a suspension in 1% methyl cellulose, each amount to a test group of six animals at a specified time prior to intravenous challenge with ovalbumin.
% Inhibition of P.C.A = 100 (1 - a/b)
For those compounds having insoluble sodium salts, the salts were isolated by reaction of the free nitro compound with 2.5N sodium hydroxide and the filtered sodium salt washed free of alkali with water. The dried salts were then administered as a suspension in 1% methyl cellulose.

[1] = 0 h, time 0 mins. prior to i.v. ovalbumin challenge
[2] = 0.5 h, time 30 mins. prior to i.v. ovalbumin challenge
[3] = 1 h, time 60 mins. prior to i.v. ovalbumin challenge

Row | Structure (SMILES) | inhibition at 25 mg/kg [1] | inhibition at 100 mg/kg [1] | inhibition at 25 mg/kg [2] | inhibition at 100 mg/kg [2] | inhibition at 25 mg/kg [3] | inhibition at 100 mg/kg [3]
1 | O=c1[nH]c2ccccc2c(O)c1[N+](=O)[O-] [Example 1, 4-Hydroxy-3-nitrocarbostyril] | 9% | 33% | 19% | 40% |  | 
2 | O=c1[nH]c2ccc([N+](=O)[O-])cc2c(O)c1[N+](=O)[O-] [Example 2, 3,6-Dinitro-4-hydroxycarbostyril] | 4% | -14% |  |  | 31% | 23%
3 | O=c1[nH]c2ccc(Cl)cc2c(O)c1[N+](=O)[O-] [Example 3, 6-Chloro-4-hydroxy-3-nitrocarbostyril] | -39% | -30% |  |  | 33% | 54%
4 | Cc1ccc2[nH]c(=O)c([N+](=O)[O-])c(O)c2c1 [Example 4, 4-Hydroxy-6-methyl-3-nitrocarbostyril] | 14% | 30% |  |  | 15% | 23%
5 | CCc1ccc2[nH]c(=O)c([N+](=O)[O-])c(O)c2c1 [Example 5, 6-Ethyl-4-hydroxy-3-nitro-carbostyril] | 19% | 26% |  |  | 13% | 33%
6 | Cc1cccc2[nH]c(=O)c([N+](=O)[O-])c(O)c12 [Example 6 (a), 4-Hydroxy-5-methyl-3-nitrocarbostyril] | 5% | 7% |  |  | 1% | 51%
7 | Cc1ccc2c(O)c([N+](=O)[O-])c(=O)[nH]c2c1 [Example 6 (b), 4-hydroxy-7-methyl-3-nitrocarbostyril] | 12% | 7% |  |  | 1% | 23%
8 | Cc1cccc2c(O)c([N+](=O)[O-])c(=O)[nH]c12 [Example 7, 4-Hydroxy-8-methyl-3-nitrocarbostyril] | 23% | 71% | 18% | 36% |  | 
9 | O=c1[nH]c2ccc(Br)cc2c(O)c1[N+](=O)[O-] [Example 8, 6-Bromo-4-hydroxy-3-nitrocarbostyril] | 5% | -11% |  |  | 25% | 19%
10 | Cc1ccc(C)c2c(O)c([N+](=O)[O-])c(=O)[nH]c12 [Example 9, 5,8-Dimethyl-4-hydroxy-3-nitrocarbostyril] | 7% | 22% | 9% | 27% |  | 
11 | Cc1cc(C)c2c(O)c([N+](=O)[O-])c(=O)[nH]c2c1 [Example 10, 5,7-Dimethyl-4-hydroxy-3-nitrocarbostyril] | 0% | 22% |  |  | 35% | 44%
12 | Cc1cc(C)c2[nH]c(=O)c([N+](=O)[O-])c(O)c2c1 [Example 11, 6,8-Dimethyl-4-hydroxy-3-nitrocarbostyril] | 11% | 0% |  |  | 52% | 51%
13 | Cc1ccc2c(O)c([N+](=O)[O-])c(=O)[nH]c2c1C [Example 12, 7,8-Dimethyl-4-hydroxy-3-nitrocarbostyril] | 9% | 50% | 36% | 47% |  | 
14 | O=c1[nH]c2c(Br)cccc2c(O)c1[N+](=O)[O-] [Example 13, 8-Bromo-4-hydroxy-3-nitrocarbostyril] | 36% | 49% |  |  | 32% | 32%
15 | O=c1[nH]c2c(Cl)cccc2c(O)c1[N+](=O)[O-] [Example 14, 8-Chloro-4-hydroxy-3-nitrocarbostyril] | 18% | 26% |  |  | 42% | 43%
16 | Cc1cc2[nH]c(=O)c([N+](=O)[O-])c(O)c2cc1C [Example 15, 6,7-Dimethyl-4-hydroxy-3-nitrocarbostyril] | 62% | 88% |  |  | 27% | 54%
17 | O=c1[nH]c2cc(Cl)ccc2c(O)c1[N+](=O)[O-] [Example 16, 7-Chloro-4-hydroxy-3-nitrocarbostyril] | -3% | 13% | 9% | 63% |  | 
18 | CCc1cc2[nH]c(=O)c([N+](=O)[O-])c(O)c2cc1CC [Example 17, 6,7-Diethyl-4-hydroxy-3-nitrocarbostyril] | 25% | 32% |  |  | 34% | 42%
19 | CCn1c(=O)c([N+](=O)[O-])c(O)c2ccccc21 [Example 30, 1-Ethyl-4-hydroxy-3-nitro carbostyril] | 9% | 20% | 34% | 41% |  | 
20 | Cn1c(=O)c([N+](=O)[O-])c(O)c2ccccc21 [Example 31, 4-Hydroxy-1-methyl-3-nitro carbostyril] | 21% | 35% | 26% | 36% |  | 
21 | Cc1ccc2c(c1)c(O)c([N+](=O)[O-])c(=O)n2C [Example 32, 1,6-Dimethyl-4-hydroxy-3-nitro carbostyril] | -12% | 16% | 55% | 26% |  | 
22 | CCn1c(=O)c([N+](=O)[O-])c(O)c2cc(C)ccc21 [Example 33, 1-Ethyl-4-hydroxy-6-methyl-3-nitro carbostyril] | -12% | -1% |  |  | -5% | 16%
23 | Cn1c(=O)c([N+](=O)[O-])c(O)c2cc(Cl)ccc21 [Example 34, 6-Chloro-4-hydroxy-1-methyl-3-nitro carbostyril] | -5% | 43% |  |  | 8% | 61%
24 | CCn1c(=O)c([N+](=O)[O-])c(O)c2cc(Cl)ccc21 [Example 35, 6-Chloro-1-ethyl-4-hydroxy-3-nitro carbostyril] | -8% | 5% |  |  | 11% | 88%
25 | Cn1c(=O)c([N+](=O)[O-])c(O)c2ccc(Cl)cc21 [Example 36, 7-Chloro-4-hydroxy-1-methyl-3-nitro carbostyril] | -4% | 34% |  |  | -2% | 50%
26 | O=c1c([N+](=O)[O-])c(O)c2ccccc2n1-c1ccccc1 [Example 37, 4-Hydroxy-3-nitro-1-phenylcarbostyril] | -2% | 13% | 1% | 42% |  | 
27 | Cc1cc2c(O)c([N+](=O)[O-])c(=O)n(C)c2cc1C [Example 38, 4-Hydroxy-3-nitro-1,6,7-trimethylcarbostyril] | 13% | 53% | 14% | 47% |  | 
